In PubChem BioAssay AID1963870 (Molecular Pharmacology Branch, DTP, NCI, 2024):

Tested on: 292921-168-R-J2-PDC KRAS tumor spheroid viability
Assay: Anticancer human tumor 292921-168-R-J2-PDC patient-derived pancreatic carcinoma cell line growth inhibition [KRAS2]
Settings: spheroids with HUVEC and MSC; for IC50: curve of first compound; for viability, T/C: stronger effect = lower value
Description: Multicellular complex tumor spheroid response to RAS pathway inhibitors in combination with a targeted agents in patient-derived cell lines with oncogenic KRAS variants from multiple cancer types
A high-throughput screen of multi-cell type tumor spheroids was designed to identify active combinations of targeted small molecules and KRAS pathway inhibitors. Complex spheroids include a stromal component modeled by human endothelial cells (HUVEC) and fibroblasts modeled by human mesenchymal stem cells (MSCs). The concentration ranges selected for each drug and investigational agent were based upon clinically achievable concentrations if the clinical Cmax of the agent was known.
Compounds. The drugs and investigational agents: BI-3406 (NSC825286), BAY-293 (NSC824723), batoprotafib (TNO155; NSC825523), sotorasib (AMG 510; NSC818433), MRTX1257 (NSC819558), elimusertib (BAY 1895344; NSC800525), molibresib (GSK525762; NSC774829), temuterkib (LY3214996; NSC803410), venetoclax (NSC766270), alisertib (NSC759677), olaparib (NSC753686), talazoparib (NSC767125), erdafitinib (NSC781556), ipatasertib (NSC767898), cabozantinib (NSC761068), nintedanib (NSC756659), abemaciclib (NSC768073), docetaxel (NSC628503), trametinib (NSC758246), and sapanisertib (NSC764658) were obtained from the National Cancer Institute (NCI) Developmental Therapeutics Program Chemical Repository. The FDA-approved anticancer drug set is available from the Developmental Therapeutics Program. […] The stock solutions were prepared in dimethyl sulfoxide (DMSO, Sigma-Aldrich, St. Louis, MO, cat. D2650) at 800-fold the tested concentration and stored at -70 degrees C prior to their use. All drugs and investigational agents were tested over a range starting from a high concentration at or near the clinical Cmax and decreasing in half-log increments. If the clinical Cmax for an agent had not been determined, the highest concentration tested was 10 microM.
Cell Culture. All cells were maintained in an incubator at 37 degrees C and 5% CO2 with 95% humidity. The PDC lines were cultured according to standard operating procedures established by the NCI PDMR (https://pdmr.cancer.gov/sops/default.htm). Briefly, all PDCs were thawed and cultured in Matrigel-coated flasks prepared with a working solution of 1X Ham's F-12 nutrient mix, without supplementation (Invitrogen, Waltham, MA, cat. 11765054), 100 U/mL penicillin-streptomycin (Invitrogen, cat. 15140122), and 2.5% Matrigel (Corning Inc., Corning, NY, cat. 354248) for the first three passages. All PDCs were cultured in complete DMEM/F-12 media containing advanced DMEM/F-12 (Invitrogen, cat. 12634028), 4.9% defined fetal bovine serum, heat inactivated (HyClone Laboratories Inc., Logan, UT, cat. SH30070.03HI), 389 ng/mL hydrocortisone (Sigma-Aldrich, cat. H4001), 9.7 ng/mL human EGF recombinant protein (Invitrogen, cat. PHG0313), 23.4 microg/mL adenine (Sigma-Aldrich, cat. A2786), 97.3 U/mL penicillin-streptomycin (Invitrogen, cat. 15140122), 1.9 mM L-glutamine (Invitrogen, cat. 25030081), and 9.7 microM Y-27632 dihydrochloride (Tocris Bioscience, Bristol, United Kingdom, cat. 1254). The PDCs were cultured in complete DMEM/F12 media without 9.7 microM Y-27632 dihydrochloride for at least two passages prior to the screen. The established cell line HOP-62 was cultured in RPMI 1640 medium, HEPES (Invitrogen, cat. 22400105) with 10% defined fetal bovine serum (HyClone Laboratories Inc., cat. SH30070.03) and 2 mM L-glutamine (Invitrogen, cat. 25030081). The pooled donor HUVEC were cultured in endothelial cell growth medium 2 (PromoCell, Heidelberg, Germany, cat. C-22011) and the hMSC were cultured in mesenchymal stem cell growth medium 2 (PromoCell, cat. C-28009). For all experiments, HUVEC and hMSC were used at passages </=5, while the malignant cell lines were used at passages </=15. […]
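Further: drug exposure lasted seven days after spheroids formed for three days.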
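Wherever viability, T/C is given: percent of DMSO vehicle control viability which is 100%.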

Question: How did the IC50 (second compound 0.1 µM) turn out when `CN(C)C/C=C/C(=O)Nc1cc2c(Nc3ccc(F)c(Cl)c3)ncnc2cc1O[C@H]1CCOC1` + CNCc1ccccc1-c1csc(C(C)Nc2nc(C)nc3cc(OC)c(OC)cc23)c1 was run?
Answer: Its IC50 is over 100 nM.

Question: And the IC50 (second compound 0.316 µM)?
Answer: Its IC50 is over 100 nM.

Question: What about the IC50 (second compound 1 µM) of the same molecule?
Answer: The IC50 was 48.9 nM.

Question: What about the IC50 (second compound 3.16 µM) of the same molecule?
Answer: Its IC50 is 1.93 nM.

Question: What about the IC50 (second compound 10 µM) of the same molecule?
Answer: The IC50 was under 0.316 nM.

Question: What about the viability, T/C (second compound 0.1 µM, first compound 0.000316 µM) of the same molecule?
Answer: The viability, T/C was 90.9%.

Question: What about the viability, T/C (second compound 0.1 µM, first compound 0.001 µM) of the same molecule?
Answer: The viability, T/C was 86.3%.

Question: And the viability, T/C (second compound 0.1 µM, first compound 0.00316 µM)?
Answer: Its viability, T/C is 72.4%.

Question: And the viability, T/C (second compound 0.1 µM, first compound 0.01 µM)?
Answer: Its viability, T/C is 70.3%.

Question: What about the viability, T/C (second compound 0.1 µM, first compound 0.0316 µM) of the same molecule?
Answer: The viability, T/C was 64.5%.

Question: What about the viability, T/C (second compound 0.1 µM, first compound 0.1 µM) of the same molecule?
Answer: Its viability, T/C is 57.5%.

Question: And the viability, T/C (second compound 0.316 µM, first compound 0.000316 µM)?
Answer: The viability, T/C was 82.4%.

Question: And the viability, T/C (second compound 0.316 µM, first compound 0.001 µM)?
Answer: The viability, T/C was 80.6%.

Question: And the viability, T/C (second compound 0.316 µM, first compound 0.00316 µM)?
Answer: The viability, T/C was 70.6%.

Question: And the viability, T/C (second compound 0.316 µM, first compound 0.01 µM)?
Answer: Its viability, T/C is 71.1%.

Question: And the viability, T/C (second compound 0.316 µM, first compound 0.0316 µM)?
Answer: The viability, T/C was 58%.

Question: And the viability, T/C (second compound 0.316 µM, first compound 0.1 µM)?
Answer: The viability, T/C was 55%.

Question: What about the viability, T/C (second compound 1 µM, first compound 0.000316 µM) of the same molecule?
Answer: Its viability, T/C is 74.4%.

Question: And the viability, T/C (second compound 1 µM, first compound 0.001 µM)?
Answer: The viability, T/C was 62%.

Question: What about the viability, T/C (second compound 1 µM, first compound 0.00316 µM) of the same molecule?
Answer: The viability, T/C was 60%.

Question: And the viability, T/C (second compound 1 µM, first compound 0.01 µM)?
Answer: The viability, T/C was 59.6%.

Question: What about the viability, T/C (second compound 1 µM, first compound 0.0316 µM) of the same molecule?
Answer: Its viability, T/C is 56.1%.

Question: What about the viability, T/C (second compound 1 µM, first compound 0.1 µM) of the same molecule?
Answer: The viability, T/C was 43.7%.

Question: What about the viability, T/C (second compound 3.16 µM, first compound 0.000316 µM) of the same molecule?
Answer: The viability, T/C was 105%.

Question: And the viability, T/C (second compound 3.16 µM, first compound 0.001 µM)?
Answer: Its viability, T/C is 91.1%.

Question: And the viability, T/C (second compound 3.16 µM, first compound 0.00316 µM)?
Answer: Its viability, T/C is 0.17%.

Question: What about the viability, T/C (second compound 3.16 µM, first compound 0.01 µM) of the same molecule?
Answer: Its viability, T/C is 0.11%.

Question: What about the viability, T/C (second compound 3.16 µM, first compound 0.0316 µM) of the same molecule?
Answer: The viability, T/C was 74.7%.

Question: And the viability, T/C (second compound 3.16 µM, first compound 0.1 µM)?
Answer: The viability, T/C was 1.26%.

Question: What about the viability, T/C (second compound 10 µM, first compound 0.000316 µM) of the same molecule?
Answer: Its viability, T/C is 0.13%.

Question: And the viability, T/C (second compound 10 µM, first compound 0.001 µM)?
Answer: The viability, T/C was 0.13%.

Question: What about the viability, T/C (second compound 10 µM, first compound 0.00316 µM) of the same molecule?
Answer: The viability, T/C was 0.09%.

Question: And the viability, T/C (second compound 10 µM, first compound 0.01 µM)?
Answer: Its viability, T/C is 0.08%.

Question: And the viability, T/C (second compound 10 µM, first compound 0.0316 µM)?
Answer: The viability, T/C was 0.13%.

Question: And the viability, T/C (second compound 10 µM, first compound 0.1 µM)?
Answer: The viability, T/C was 0.17%.
